Here are results for 3 compounds from publication PMC3757949 (Nature medicine, 2012).

The test system of one data set is ERα and ERβ. The class given is cell-based, human.
Another data set concerns MCF-7 xenografts. Description: Tumor growth in MCF-7 xenograft OVX nude mice. The data set is classed as in vivo. The note with it: for volume of harvested tumors / weight of harvested tumors: after 9 weeks of treatment, mean ± s.e.m.; for tumor incidence at day 68: conjugates 4,000 μg per kg body weight daily, estradiol as s.c. pellet.
The target in data set [1] is T1, GLP-1R (Homo sapiens, UniProt P43220). Put plainly: GLP-1R activation, CRE-luciferase reporter gene assay in HEK 293 cells. The class given is cell-based. (Reporter assays use an easily measured gene product as a stand-in for the process of interest.)
T1 sequence (P43220 24-463, species assumed): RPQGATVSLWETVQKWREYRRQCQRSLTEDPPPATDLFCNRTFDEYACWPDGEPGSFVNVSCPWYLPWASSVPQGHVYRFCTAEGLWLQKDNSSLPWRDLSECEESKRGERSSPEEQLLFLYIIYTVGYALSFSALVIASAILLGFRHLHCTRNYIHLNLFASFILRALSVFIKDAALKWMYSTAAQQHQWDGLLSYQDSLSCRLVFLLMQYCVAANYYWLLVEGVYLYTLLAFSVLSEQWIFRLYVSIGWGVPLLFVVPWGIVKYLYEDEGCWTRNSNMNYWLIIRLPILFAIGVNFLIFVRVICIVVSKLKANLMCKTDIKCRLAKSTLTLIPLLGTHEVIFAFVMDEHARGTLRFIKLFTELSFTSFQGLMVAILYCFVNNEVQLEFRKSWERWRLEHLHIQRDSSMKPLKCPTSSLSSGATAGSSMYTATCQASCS
Another data set concerns DIO mice. Description: Body weight in diet-induced obese. The data set is classed as in vivo. The note with it: DIO male mice.
Data set [2] is described as follows: Conjugate degradation analysis in human plasma. The data set is classed as in vitro ADME. The conditions noted are these: pH 7.4, 37 °C.
Data set [3] addresses T1, GLP-1R. Put plainly: GLP-1R competitive binding.

As to `C[C@]12CC[C@@H]3c4ccc(O)cc4CC[C@H]3[C@@H]1CC[C@@H]2O` [estradiol, 17β-estradiol, reference compound], in the data set on ERα and ERβ (read-out: EC50, intracellular estrogen activity (ERE-mediated transcriptional activity), mean ± s.d.), the concentration for a half-maximal effect (EC50) (usually the concentration at which the effect is half-maximal) came out at 4 ± 1 pM. In addition, in the data set on MCF-7 xenografts, the “volume of harvested tumors” value was 1,461.2 ± 584.3 mm^3, the “weight of harvested tumors” value is given as 779.7 ± 257.7 mg and the “tumor incidence at day 68” value stood at 100%.

Turning to `CCCCCCCCCCCCCCCC(=O)N[C@@H](CCC(=O)N[C@@H](CCC(=O)NCCCC[C@H](NC(=O)[C@H](CO)NC(=O)[C@@H]1CCCN1C(=O)[C@@H]1CCCN1C(=O)[C@@H]1CCCN1C(=O)[C@H](C)NC(=O)CNC(=O)[C@H](CO)NC(=O)[C@H](CO)NC(=O)[C@@H]1CCCN1C(=O)CNC(=O)CNC(=O)[C@H](CCCCN)NC(=O)[C@@H](NC(=O)[C@H](CC(C)C)NC(=O)[C@H](Cc1c[nH]c2ccccc12)NC(=O)[C@H](C)NC(=O)[C@@H](NC(=O)[C@H](Cc1ccccc1)NC(=O)[C@H](CCC(=O)O)NC(=O)[C@H](CCCCN)NC(=O)[C@H](C)NC(=O)[C@H](C)NC(=O)[C@H](CCC(N)=O)NC(=O)[C@H](CCC(=O)O)NC(=O)[C@H](CCC(=O)O)NC(=O)[C@H](CC(C)C)NC(=O)[C@H](Cc1ccc(O)cc1)NC(=O)[C@H](CO)NC(=O)[C@H](CO)NC(=O)[C@@H](NC(=O)[C@H](CC(=O)O)NC(=O)[C@H](CO)NC(=O)[C@@H](NC(=O)[C@H](Cc1ccccc1)NC(=O)[C@@H](NC(=O)CNC(=O)[C@H](CCC(=O)O)NC(=O)C(C)(C)NC(=O)[C@@H](N)Cc1c[nH]cn1)[C@@H](C)O)[C@@H](C)O)C(C)C)[C@@H](C)CC)C(C)C)C(N)=O)C(=O)O)C(=O)O` [acylated GLP-1 analog], at GLP-1R [1] (20% human plasma versus no plasma), the “fold lower GLP-1R potency in presence of plasma” value is on record as ~ 400 fold. Moreover, the body weight loss in the data set on DIO mice (400 μg per kg body weight daily s.c., 14 d (Fig. 5d)) was 30.1%.

Consider `CC[C@H](C)[C@H](NC(=O)[C@H](Cc1ccccc1)NC(=O)[C@H](CCC(=O)O)NC(=O)[C@H](CCCCN)NC(=O)[C@H](C)NC(=O)[C@H](C)NC(=O)[C@H](CCC(N)=O)NC(=O)[C@H](CCC(=O)O)NC(=O)[C@H](CCC(=O)O)NC(=O)[C@H](CC(C)C)NC(=O)[C@H](Cc1ccc(O)cc1)NC(=O)[C@H](CO)NC(=O)[C@H](CO)NC(=O)[C@@H](NC(=O)[C@H](CC(=O)O)NC(=O)[C@H](CO)NC(=O)[C@@H](NC(=O)[C@H](Cc1ccccc1)NC(=O)[C@@H](NC(=O)CNC(=O)[C@H](CCC(=O)O)NC(=O)C(C)(C)NC(=O)[C@@H](N)Cc1c[nH]cn1)[C@@H](C)O)[C@@H](C)O)C(C)C)C(=O)N[C@@H](C)C(=O)N[C@@H](Cc1c[nH]c2ccccc12)C(=O)N[C@@H](CC(C)C)C(=O)N[C@H](C(=O)N[C@@H](CCCCN)C(=O)NCC(=O)NCC(=O)N1CCC[C@H]1C(=O)N[C@@H](CO)C(=O)N[C@@H](CO)C(=O)NCC(=O)N[C@@H](C)C(=O)N1CCC[C@H]1C(=O)N1CCC[C@H]1C(=O)N1CCC[C@H]1C(=O)N[C@@H](CO)C(=O)N[C@@H](CCCCNC(=O)CCC(=O)Oc1ccc2c(c1)CC[C@@H]1[C@@H]2CC[C@]2(C)C(=O)CC[C@@H]12)C(N)=O)C(C)C` [labile GLP-1–estrogen conjugate], for which the “intracellular estrogen activity compared to estrone” value in the data set on ERα and ERβ (cells do not express GLP-1R) is “comparable intracellular estrogen activity to estrone”. Further, the “GLP-1R biochemical signaling potency (EC50) compared to parent peptide” value at GLP-1R [1] is listed as “matched the parent peptides”. Further, the “decrease in body weight” value in the data set with DIO mice (400 μg per kg body weight daily s.c., 2 weeks) stood at 7.5%. For the same compound, in the data set on DIO mice (400 μg per kg body weight daily s.c., 2 weeks, mean ± s.e.m.), the “body weight at end of treatment” value is 50.0 ± 1.1 g. In addition, the “body weight at start of treatment” value in the data set with DIO mice (400 μg per kg body weight, mean ± s.e.m.) turned out to be 54.1 ± 0.9 g. In addition, in the data set with MCF-7 xenografts, the “volume of harvested tumors” value is reported as 92.1 ± 23.8 mm^3, the “weight of harvested tumors” value is listed as 37.0 ± 9.0 mg and the “tumor incidence at day 68” value turned out to be 100%. Moreover, in data set [2], the “time to complete degradation with release of estrogen” value is on record as at most 6 h. For the same compound, the “GLP-1R binding affinity (IC50) compared to parent peptide” value at GLP-1R [3] is recorded as “matched the parent peptides”.
